# Laboratory results: publication PMC7312353, “Lipid Raft Destabilization Impairs Mouse TRPA1 Responses to Cold and Bacterial Lipopolysaccharides” (International Journal of Molecular Sciences, 2020)
# Biological target: mouse TRPA1 (mTRPA1), Transient receptor potential ankyrin 1 cation channel (Mus musculus, UniProt Q8BLA8)
# Assay: Fura-2 ratiometric Ca2+ imaging, concentration-response in CHO-K1 cells stably transfected with mTRPA1
# Assay type: cell-based
# Sequence of mouse TRPA1 (mTRPA1), Transient receptor potential ankyrin 1 cation channel (Q8BLA8 whole entry): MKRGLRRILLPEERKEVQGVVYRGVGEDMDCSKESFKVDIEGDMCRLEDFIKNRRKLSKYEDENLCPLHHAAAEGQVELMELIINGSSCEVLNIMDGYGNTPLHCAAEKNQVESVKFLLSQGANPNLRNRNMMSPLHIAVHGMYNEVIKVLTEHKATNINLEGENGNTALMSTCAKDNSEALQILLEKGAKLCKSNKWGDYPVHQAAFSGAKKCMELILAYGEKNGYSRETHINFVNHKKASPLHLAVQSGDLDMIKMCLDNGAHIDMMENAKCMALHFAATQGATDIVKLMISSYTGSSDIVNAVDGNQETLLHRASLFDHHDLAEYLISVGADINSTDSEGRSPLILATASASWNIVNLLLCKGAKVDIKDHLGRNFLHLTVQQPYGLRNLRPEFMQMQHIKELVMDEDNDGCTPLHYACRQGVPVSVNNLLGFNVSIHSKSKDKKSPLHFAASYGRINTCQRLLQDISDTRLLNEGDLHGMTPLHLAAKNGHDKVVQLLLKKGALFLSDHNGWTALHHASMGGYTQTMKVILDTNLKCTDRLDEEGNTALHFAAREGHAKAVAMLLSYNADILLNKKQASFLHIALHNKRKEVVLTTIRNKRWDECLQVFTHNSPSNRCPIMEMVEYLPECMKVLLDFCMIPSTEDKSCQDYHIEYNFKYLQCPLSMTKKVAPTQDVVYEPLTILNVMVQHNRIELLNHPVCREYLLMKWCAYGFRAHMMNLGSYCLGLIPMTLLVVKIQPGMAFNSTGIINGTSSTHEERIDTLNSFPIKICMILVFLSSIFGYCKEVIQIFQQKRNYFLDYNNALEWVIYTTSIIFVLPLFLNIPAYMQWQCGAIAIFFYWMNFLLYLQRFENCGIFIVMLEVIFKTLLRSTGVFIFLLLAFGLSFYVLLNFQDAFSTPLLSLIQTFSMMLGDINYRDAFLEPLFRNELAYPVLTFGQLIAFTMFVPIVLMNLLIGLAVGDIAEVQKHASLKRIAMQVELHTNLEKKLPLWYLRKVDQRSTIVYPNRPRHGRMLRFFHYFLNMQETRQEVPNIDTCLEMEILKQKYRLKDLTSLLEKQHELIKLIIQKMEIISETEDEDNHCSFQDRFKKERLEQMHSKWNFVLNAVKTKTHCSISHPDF
structure (smiles),measurement,value
"C=CCN=C=S [AITC, allyl isothiocyanate]",EC50,4.6 ± 1.1 µM
